According to US9604981B2, “IP receptor agonist heterocyclic compounds” (Novartis AG, priority 2013, dated 2017):

Target: T1, IP receptor (Homo sapiens, UniProt P43119)
T1 construct: expressed in transfected cells; host or cells: CHO cells (CHO-IP)
Assay: cAMP accumulation in CHO cells stably expressing the IP receptor (AlphaScreen)
Assay type: cell-based
Settings: 1 hour at room temperature
Protocol: Activity of compounds at the IP receptor (IP receptor) is assessed by measuring cAMP accumulation in CHO cells stably expressing the IP receptor (CHO-IP) using the PerkinElmer AlphaScreen assay. This technology measures the endogenous production of cAMP, in a non-radioactive luminescence proximity homogenous assay. A biological reaction occurs between streptavidin coated donor beads, biotinylated cAMP and anti-cAMP acceptor beads, bringing the donor and acceptor beads close enough together so that upon excitation a fluorescence signal is produced. On production of endogenous cAMP, competition between the biotinylated cAMP and cellular-derived cAMP causes a reduction in the fluorescent signal. The reduction in signal is proportional to the amount of cAMP being produced, thus it is possible to quantify the amount of cAMP being produced on stimulation with agonist.
Test and reference compounds are prepared at 100× [final] in 100% DMSO, and diluted 1:3 using a Biomek Fx (Beckman Coulter). This is followed by an intermediate dilution to give 5× [final] in assay buffer (HBSS containing 5 mM HEPES, 0.1% (w/v) BSA). […] The assay plate is then incubated at room temperature in the dark, for 60 minutes with gentle shaking, and read on the Envision plate reader (Perkin Elmer). […]

T1 sequence (P43119 whole entry): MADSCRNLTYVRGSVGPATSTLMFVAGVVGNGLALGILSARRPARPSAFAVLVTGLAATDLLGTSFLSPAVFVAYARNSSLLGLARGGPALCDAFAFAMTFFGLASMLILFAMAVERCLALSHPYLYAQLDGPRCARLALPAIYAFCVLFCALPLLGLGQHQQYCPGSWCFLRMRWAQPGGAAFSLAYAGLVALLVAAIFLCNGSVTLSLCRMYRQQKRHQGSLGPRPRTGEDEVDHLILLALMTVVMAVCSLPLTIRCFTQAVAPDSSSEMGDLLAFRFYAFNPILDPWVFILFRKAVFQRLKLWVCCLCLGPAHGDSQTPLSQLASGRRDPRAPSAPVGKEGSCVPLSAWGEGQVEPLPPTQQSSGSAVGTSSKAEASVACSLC

Cc1ccc(-c2cc3c(nc2-c2ccc(C)cc2)CCCN3CCCCCCC(=O)O)cc1 [Example 1, 7-(6,7-Di-p-tolyl-3,4-dihydro-1,5-naphthyridin-1(2H)-yl)heptanoic acid]
EC50: 0.455 nM
